Where a name gives a salt, the structure may show the parent alone.
Columns and labels:
[1] = system: reserpine-induced hypothermia; assay: Antagonism of the reserpine-induced hypothermia; format: in vivo, mice; details: given 4 hours after reserpine 2.5 mg/kg i.p.; rectal temperature 90 min after compound
Experimental: Antagonism of the Reserpine-Induced Hypothermia
The compounds of a general formula (I) as well as the reference compounds are administered 4 hours after reserpine (2.5 mg/kg i.p.). Rectal temperature is measured 90 minutes after the administration of the compounds to be tested.

[2] = system: immobility of mice; assay: Tail suspension; format: in vivo; details: 30 mg/kg PO, reference
Experimental: Compounds of a general formula (I) (starting at an initial dose of 30 mg/kg PO, 1 hr pretreatment) were administered to mice (n=5). A reduction of immobility by 50% or more relative to a vehicle-treated control group indicates possible antidepressant activity. Fluoxetine hydrochloride served as a standard reference compound. […] There was a 35% mobility reduction at 100 mg/kg PO, 54% mobility reduction at 10 mg/kg PO and 46% mobility reduction at 1 mg/kg PO.

[3] = system: apomorphine-induced hypothermia; assay: Antagonism of apomorphine-induced hypothermia; format: in vivo; details: male CD1 mice; i.p.; apomorphine 16 mg/kg s.c.; rectal temperature 30 min after apomorphine
Experimental: Antagonism of Apomorphine-Induced Hypothermia (A. J. Puech et al., Psychopharmacology (1981) 75(1):84-91)
Male CD1 mice (Charles River) weighing 22-25 g are used in the test. The mice are housed individually in transparent plastic cages. The compounds of a general formula (I) as well as the reference compounds are suspended in 1% aqueous carboxymethylcellulose and administered intraperitoneally (10 ml/kg; 6 mice per dose). Control animals received the vehicle only.
Rectal temperature is measured using a probe carrying a thermoelectric couple (connected to a galvanometer) inserted to a constant depth.
The compounds to be tested as well as the vehicle are administered 30 minutes after basal rectal temperature is measured, and 30 minutes later apomorphine (16 mg/kg) is administered subcutaneously. Rectal temperature is measured again 30 minutes after the administration of apomorphine.
The results are expressed as average rectal temperature of each group, by evaluating the significant differences in temperature between treated and control mice by Student's t test, and are used for calculating the M.A.D., i.e., the minimal active dose.

CCOC(=O)COc1cccc([C@@H]2CCC[C@@H](NC[C@H](O)c3cccc(Cl)c3)C2)c1 [Compound A, 3-[(1R,3R)-3-[(2R)-2-(3-chlorophenyl)-2-hydroxyethylamino]cyclohexyl]-phenoxy acetic acid ethyl ester, maleate salt]
M.A.D. (minimal active dose), antagonism of reserpine-induced hypothermia [1]: closer to clenbuterol (0.03 mg/kg i.p.) than salbutamol (3.0 mg/kg i.p.)

CNCCC(Oc1ccc(C(F)(F)F)cc1)c1ccccc1 (stereo not drawn) [fluoxetine, Fluoxetine hydrochloride]
reduction of immobility [2]: 87%

CC(C)(C)NCC(O)c1cc(Cl)c(N)c(Cl)c1 (stereo not drawn) [clenbuterol]
M.A.D. (minimal active dose), antagonism of apomorphine-induced hypothermia [3]: 0.03 mg/kg i.p.
M.A.D. (minimal active dose), antagonism of reserpine-induced hypothermia [1]: 0.03 mg/kg i.p.

CC(C)(C)NCC(O)c1ccc(O)c(CO)c1 (stereo not drawn) [salbutamol]
M.A.D. (minimal active dose), antagonism of apomorphine-induced hypothermia [3]: 1.0 mg/kg i.p.
M.A.D. (minimal active dose), antagonism of reserpine-induced hypothermia [1]: 3.0 mg/kg i.p.
